Reference: patent US6670446B1, “N1 modified glycopeptides” (Eli Lilly and Company, priority 1998, dated 2003)

Legend:
Assay type in all cases: cell-based
[1] = test system: Staphylococcus aureus 489; test: MIC, standard broth micro-dilution assay, SA 489
Experimental: (§1) The antibacterial efficacy of the present compounds is illustrated by Table III. The minimal inhibitory concentrations (MICs) were determined using a standard broth micro-dilution assay.

[2] = test system: Enterococcus faecalis 2041; test: MIC, standard broth micro-dilution assay, EF 2041
Experimental: as §1

[3] = test system: Staphylococcus aureus 446; test: MIC, standard broth micro-dilution assay, SA 446
Experimental: as §1

[4] = test system: Staphylococcus haemolyticus 105; test: MIC, standard broth micro-dilution assay, SH 105
Experimental: as §1

[5] = test system: Enterococcus faecalis 276; test: MIC, standard broth micro-dilution assay, EF 276
Experimental: as §1

[6] = test system: Sensitive Enterococcus faecium and faecalis; test: MIC, standard broth micro-dilution assay, Sensitive; conditions: geometric mean of 4-6 isolates
Experimental: as §1

[7] = test system: Staphylococcus aureus S13E
Experimental: as §1

[8] = test system: Haemophilus influenzae RD; test: MIC, standard broth micro-dilution assay, HFRD
Experimental: as §1

[9] = test system: Staphylococcus aureus X400; test: MIC, standard broth micro-dilution assay, SA X400
Experimental: as §1

[10] = test system: Resistant Enterococcus faecium and faecalis; test: MIC, standard broth micro-dilution assay, Resistant; conditions: geometric mean of 4-6 isolates
Experimental: as §1

[11] = test system: Staphylococcus epidermidis 270; test: MIC, standard broth micro-dilution assay, SE 270
Experimental: as §1

[12] = test system: Staphylococcus aureus 491; test: MIC, standard broth micro-dilution assay, SA 491
Experimental: as §1

[13] = test system: Staphylococcus aureus SA1199; test: MIC, standard broth micro-dilution assay, SA 1199
Experimental: as §1

Escherichia coli EC14 = test: MIC, standard broth micro-dilution assay, EC 14
Experimental: as §1

Enterococcus faecium 180 = test: MIC, standard broth micro-dilution assay, EF 180
Experimental: as §1

[14] = test system: Staphylococcus aureus 447; test: MIC, standard broth micro-dilution assay, SA 447
Experimental: as §1

[15] = test system: Staphylococcus aureus X778; test: MIC, standard broth micro-dilution assay, SA X778
Experimental: as §1

[16] = test system: Enterococcus gallinarum 245; test: MIC, standard broth micro-dilution assay, EG 245
Experimental: as §1

[17] = test system: Enterococcus faecium 180-1; test: MIC, standard broth micro-dilution assay, EF 180-1
Experimental: as §1

[18] = test system: Staphylococcus aureus SA1199A; test: MIC, standard broth micro-dilution assay, SA 1199A
Experimental: as §1

[19] = test system: Staphylococcus haemolyticus 415; test: MIC, standard broth micro-dilution assay, SH 415
Experimental: as §1

Row | SMILES | minimal inhibitory concentration (MIC), SA 489 [1] | minimal inhibitory concentration (MIC), EF 2041 [2] | minimal inhibitory concentration (MIC), SA 446 [3] | minimal inhibitory concentration (MIC), SH 105 [4] | minimal inhibitory concentration (MIC), EF 276 [5] | minimal inhibitory concentration (MIC), Sensitive [6] | minimal inhibitory concentration (MIC), SA S13E [7] | minimal inhibitory concentration (MIC), HFRD [8] | minimal inhibitory concentration (MIC), SA X400 [9] | minimal inhibitory concentration (MIC), Resistant [10] | minimal inhibitory concentration (MIC), SE 270 [11] | minimal inhibitory concentration (MIC), SA 491 [12] | minimal inhibitory concentration (MIC), SA 1199 [13] | minimal inhibitory concentration (MIC), EC 14 (Escherichia coli EC14) | minimal inhibitory concentration (MIC), EF 180 (Enterococcus faecium 180) | minimal inhibitory concentration (MIC), SA 447 [14] | minimal inhibitory concentration (MIC), SA X778 [15] | minimal inhibitory concentration (MIC), EG 245 [16] | minimal inhibitory concentration (MIC), EF 180-1 [17] | minimal inhibitory concentration (MIC), SA 1199A [18] | further results
1 | CC1OC(OC2c3ccc(c(Cl)c3)Oc3cc4cc(c3OC3OC(CO)C(O)C(O)C3OC3CC(C)(NCc5ccc(-c6ccccc6)cc5)C(O)C(C)O3)Oc3ccc(cc3Cl)C(O)C(NC(=O)C(N)CCCCN)C(=O)NC(CC(N)=O)C(=O)NC4C(=O)NC3C(=O)NC2C(=O)NC(C(=O)O)c2cc(O)cc(O)c2-c2cc3ccc2O)CC(C)(N)C1O [Example 31, N^1-L-lysine derivative of N^DISACC-(p-phenylbenzyl)desleucylA82846B] | 2 | 1 | 0.5 | 0.5 | 2 | 0.33 | 1 | >64 | 2 | 5.6 | 0.5 | 0.5 | 0.5 | >64 | 1 | 2 | 0.5 | 0.5 | 0.25 | 0.25 | minimal inhibitory concentration (MIC), SH 415 [19]: 2
2 | CC1OC(OC2c3ccc(c(Cl)c3)Oc3cc4cc(c3OC3OC(CO)C(O)C(O)C3OC3CC(C)(NCc5ccc(-c6ccccc6)cc5)C(O)C(C)O3)Oc3ccc(cc3Cl)C(O)C(NC(=O)C3CCCN3)C(=O)NC(CC(N)=O)C(=O)NC4C(=O)NC3C(=O)NC2C(=O)NC(C(=O)O)c2cc(O)cc(O)c2-c2cc3ccc2O)CC(C)(N)C1O [Example 32, N^1-L-proline derivative of N^DISACC-(p-phenylbenzyl)desleucylA82846B] | 1 | 1 | 1 | 0.125 | 2 | 0.76 | 0.25 | >64 | 2 | 16 | 0.125 | 0.125 | 0.25 | >64 | 2 | 1 | 0.5 | 0.5 | 0.125 | ≦.06 | minimal inhibitory concentration (MIC), SH 415 [19]: 0.5
3 | CC1OC(OC2c3ccc(c(Cl)c3)Oc3cc4cc(c3OC3OC(CO)C(O)C(O)C3OC3CC(C)(NCc5ccc(-c6ccccc6)cc5)C(O)C(C)O3)Oc3ccc(cc3Cl)C(O)C(NC(=O)C(N)Cc3ccc(Cl)cc3)C(=O)NC(CC(N)=O)C(=O)NC4C(=O)NC3C(=O)NC2C(=O)NC(C(=O)O)c2cc(O)cc(O)c2-c2cc3ccc2O)CC(C)(N)C1O [Example 33, N^1-[L-3-(p-chlorophenyl)alanine] derivative of N^DISACC-(p-phenylbenzyl)desleucylA82846B] | 2 | 2 | 1 | 0.5 | 4 | 2.6 | 1 | >64 | 1 | 27 | 0.25 | 0.5 | 0.5 | >64 | 4 | 1 | 1 | 1 | 0.5 | 0.25 | minimal inhibitory concentration (MIC), SH 415 [19]: 0.5
4 | CC(C)CC(NCc1ccc(-c2ccccc2)cc1)C(=O)NC1C(=O)NC(CC(N)=O)C(=O)NC2C(=O)NC3C(=O)NC(C(=O)NC(C(=O)O)c4cc(O)cc(O)c4-c4cc3ccc4O)C(OC3CC(C)(N)C(O)C(C)O3)c3ccc(c(Cl)c3)Oc3cc2cc(c3OC2OC(CO)C(O)C(O)C2OC2CC(C)(N)C(O)C(C)O2)Oc2ccc(cc2Cl)C1O [Example 34, N^1-[N-(p-phenylbenzyl)-D-leucine] derivative of desleucylA82846B] | ≦.06 | 0.25 | 0.125 | ≦.06 | ≦.06 | 0.44 | ≦.06 | 64 | ≦.06 | 38 | 0.25 | ≦.06 | 0.125 | >64 | 2 | 0.125 | ≦.06 | ≦.06 | ≦.06 | ≦.06 | minimal inhibitory concentration (MIC), SH 415 [19]: 4
5 | CC(C)CC(NCc1ccc(-c2ccccc2)cc1)C(=O)NC1C(=O)NC(CC(N)=O)C(=O)NC2C(=O)NC3C(=O)NC(C(=O)NC(C(=O)O)c4cc(O)cc(O)c4-c4cc3ccc4O)C(OC3CC(C)(N)C(O)C(C)O3)c3ccc(c(Cl)c3)Oc3cc2cc(c3OC2OC(CO)C(O)C(O)C2OC2CC(C)(NCc3ccc(-c4ccccc4)cc3)C(O)C(C)O2)Oc2ccc(cc2Cl)C1O [Example 35, N^1-[N-(p-phenylbenzyl)-D-leucine] derivative of N^DISACC-(p-phenylbenzyl)desleucylA82846B] | 2 | 0.5 | 2 | 0.5 | 1 | 0.66 | 2 | >64 | 2 | 4.8 | 1 | 1 | 2 | >64 | 1 | 2 | 1 | 1 | 0.25 | 1 | minimal inhibitory concentration (MIC), SH 415 [19]: 2
